Where two headings read alike, the source gives them in different places. Non-standard residues stand in square brackets, D forms with d. Residues, ends and D or L forms follow the SMILES beside them. ξ: configuration not given here. *: point of attachment. Boc = CC(C)(C)OC(=O)*; ξβ3hA = CC(N)CC(=O)O; OBn = c1ccc(CO*)cc1; βAla = NCCC(=O)O
How the values were obtained:
[1] = tested on: juvenile shellfish of Mediterranean mussel
Experimental: The sample was dissolved in ethanol to adjust to a concentration of 1 mg/mL. Thirty and 100 µL (30 and 100 µg) of the sample solutions were mixed with the solvent, and the mixtures were brought to a total volume of 500 µL. These mixtures were spread on the bottom surface of the glass beaker of the test container, and the solvent was volatilized by shaking them overnight.
A volume of 10 mL of the test seawater was added to the glass beakers of the test containers. The tests were initiated by introducing twelve test individuals into the test seawater in each beaker. The tests ended after three days, and the observation was conducted.
In Table 2, the terms "bottom surface-adhered individuals" and "wall surface-adhered individuals" refer to individuals that are adhered to the bottom surface and wall surface of the beaker, respectively; the term "bottom surface-crawling individuals" refers to individuals that move along the bottom surface without adhering; the term "overturned individuals or closed shell individuals (unadhered)" refers to individuals that are either overturned or in a closed shell without adhering to the bottom surface; and the term "number of byssal threads on the bottom surface" refers to the number of foot threads that are fixed to the bottom surface. In particular, the greater the reduction in the number of byssal threads, the stronger the effect of adhesion prevention.

[2] = tested on: cypris larvae of Striped Barnacle
Experimental: (§1) After solutions of about 2 mL of the test compounds (tripeptides 2 to 10 and dipeptide 11) in ethanol were dispensed into each well of the 24-well polystyrene multi-well plate (3.2 mL/well, well diameter 15.5 mm, well height 17.6 mm, manufactured by Corning), the multi-well plate was air-dried to evaporate the ethanol.
(§2) The test compounds were aliquoted to achieve final concentrations of 0.03, 0.1, 0.3, 1, 3, and 10 µg/mL.
(§3) Subsequently, six individuals of the cypris larvae of Striped Barnacle (hereinafter simply referred to as "barnacle larvae") were transplanted into each well along with 2 mL of pre-filtered natural seawater. The multi-well plate was left standing in an incubator at 25°C, and the barnacle larvae were allowed to grow for two days at 25°C.
In the above procedure, a test for the control group was conducted by dispensing an ethanol solution without any test compound. […]
Forty-eight hours after the test started, the number of adhered individuals and the number of dead individuals of the barnacle larvae in each well were counted under a stereomicroscope. The adhesion rate (%) and mortality rate (%) of the barnacle larvae in each well were calculated, respectively. […]

[3] = tested on: cypris larvae of Striped Barnacle; test: Evaluation of antifouling activities and toxicity against the cypris larvae of Striped Barnacle (24-well plate, adhesion and mortality after 48 h); assay type: in vivo, Amphibalanus amphitrite; settings: for Toxicity 48h LC50: concentration causing 50% mortality in barnacle larvae
Experimental: as §1, §2, §3
In the above procedure, a test for the control group was conducted by dispensing an ethanol solution without any test compound. The natural seawater used in the above test was prepared by diluting the natural seawater collected from the coastal area near Onjuku, Chiba Prefecture (salt concentration: 36 g/kg) with distilled water to adjust a salt concentration of 32 g/kg.
In the test group, the control group, and the comparison group, the tests were conducted in four times (four wells) for one concentration of each test compounds.
Forty-eight hours after the test started, the number of adhered individuals and the number of dead individuals of the barnacle larvae in each well were counted under a stereomicroscope. The adhesion rate (%) and mortality rate (%) of the barnacle larvae in each well were calculated, respectively. […] Similarly, for each test compound, a dose-mortality response curve was created to determine the half-maximal lethal concentration (48h LC50) that causes 50% mortality in the barnacle larvae. As a reference, the value of Boc-3 obtained from non-Patent literature 8 is also described.
In particular, the lower the settlement rate, the stronger the antifouling effect.

[4] = tested on: juvenile shellfish of Mediterranean mussel; test: Evaluation of the antifouling activity and toxicity against the juvenile shellfish of Mediterranean mussel (coated glass beaker, 3 days); assay type: in vivo, Mytilus galloprovincialis; settings: for bottom surface-adhered individuals % / bottom surface-crawling individuals % / overturned individuals or closed shell individuals (unadhered) % / wall surface-adhered individuals % / number of byssal threads on the bottom surface / bottom surface-adhered individuals No. / bottom surface-crawling individuals No. / overturned individuals or closed shell individuals (unadhered) No. / wall surface-adhered individuals No.: three days; for bottom surface-adhered individuals No. / bottom surface-crawling individuals No. / overturned individuals or closed shell individuals (unadhered) No. / wall surface-adhered individuals No.: twelve individuals; for antifouling effect (overall determination in words): juvenile Mediterranean mussel, 3.0 µg/mL and 10 µg/mL
Experimental: The sample was dissolved in ethanol to adjust to a concentration of 1 mg/mL. Thirty and 100 µL (30 and 100 µg) of the sample solutions were mixed with the solvent, and the mixtures were brought to a total volume of 500 µL. These mixtures were spread on the bottom surface of the glass beaker of the test container, and the solvent was volatilized by shaking them overnight. As a result, the samples to be evaluated were coated only on the bottom surface of the glass beaker.

[5] = tested on: cypris larvae of Striped Barnacle; settings: Reference value, see Table 1 in non-Patent literature 8; cited from earlier work
[6] = 3 µg/mL (30 µg), twelve individuals, three days
[7] = Test Example 1, concentration that prevents adhesion of barnacle larvae by 50%, 48 h, 25°C, tested 0.03-10 µg/mL
[8] = Table 4 summary of results from Test Examples 1 to 3 (rounded)
[9] = Test Example 1, 48 h, 25°C, tested 0.03-10 µg/mL
[10] = 3 µg/mL (30 µg), control group 118

SMILES: O=S(=O)([O-])[O-].[Cu+2] [Copper sulfate]
- bottom surface-adhered individuals % ([1]; 3 µg/mL (30 µg), three days): 0.0%
- bottom surface-crawling individuals % ([1]; 3 µg/mL (30 µg), three days): 0.0%
- overturned individuals or closed shell individuals (unadhered) % ([1]; 3 µg/mL (30 µg), three days): 100.0%
- wall surface-adhered individuals % ([1]; 3 µg/mL (30 µg), three days): 0.0%
- number of byssal threads on the bottom surface ([1]; 3 µg/mL (30 µg), three days, control group 118): 2
- bottom surface-adhered individuals No. [1, 6]: 0
- bottom surface-crawling individuals No. [1, 6]: 0
- overturned individuals or closed shell individuals (unadhered) No. [1, 6]: 12
- wall surface-adhered individuals No. [1, 6]: 0
- antifouling effect (overall determination in words) ([1]; juvenile Mediterranean mussel, 3.0 µg/mL and 10 µg/mL): high
- Antifouling activity 48h EC50 [2, 7]: 0.41 µg/mL
- Antifouling activity 48h EC50 ([2]; Test Example 3, same manner as Test Example 1): 0.3 µg/mL

SMILES: CC(C)C(NC(=O)[C@@H]1CCCN1C(=O)OC(C)(C)C)C(C)C(=O)OCc1ccccc1 (stereo partly shown) [dipeptide 11]
- Antifouling activity 48h EC50 [3, 8]: 2.4 µg/mL
- Toxicity 48h LC50 [3, 9]: >10 µg/mL
- Antifouling activity 48h EC50 [3, 7]: 2.39 µg/mL

SMILES: CCOC(=O)CCNC(=O)[C@@H]1CCCN1C(=O)[C@H](Cc1ccccc1)NC(=O)OC(C)(C)C [tripeptide 4] (Boc-Phe-Pro-[βAla]-OEt)
- Antifouling activity 48h EC50 [3, 8]: >10 µg/mL
- Toxicity 48h LC50 [3, 9]: >10 µg/mL
- Antifouling activity 48h EC50 [3, 7]: >10 µg/mL

SMILES: CCOC(=O)[C@H](C)NC(=O)[C@@H]1CCCN1C(=O)[C@H](Cc1ccccc1)NC(=O)OC(C)(C)C [tripeptide 2] (Boc-Phe-Pro-Ala-OEt)
- Antifouling activity 48h EC50 [3, 8]: >10 µg/mL
- Toxicity 48h LC50 [3, 9]: >10 µg/mL
- Antifouling activity 48h EC50 [3, 7]: >10 µg/mL

SMILES: CC(CC(=O)OCc1ccccc1)NC(=O)[C@@H]1CCCN1C(=O)[C@H](Cc1ccccc1)NC(=O)OC(C)(C)C (stereo partly drawn) [tripeptide 9] (Boc-Phe-Pro-[ξβ3hA]-OBn)
- bottom surface-adhered individuals % ([4]; 3 µg/mL (30 µg)): 75.0%
- bottom surface-crawling individuals % ([4]; 3 µg/mL (30 µg)): 0.0%
- overturned individuals or closed shell individuals (unadhered) % ([4]; 3 µg/mL (30 µg)): 16.7%
- wall surface-adhered individuals % ([4]; 3 µg/mL (30 µg)): 8.3%
- number of byssal threads on the bottom surface [4, 10]: 73
- bottom surface-adhered individuals No. ([4]; 3 µg/mL (30 µg)): 9
- bottom surface-crawling individuals No. ([4]; 3 µg/mL (30 µg)): 0
- overturned individuals or closed shell individuals (unadhered) No. ([4]; 3 µg/mL (30 µg)): 2
- wall surface-adhered individuals No. ([4]; 3 µg/mL (30 µg)): 1
- bottom surface-adhered individuals % ([4]; 10 µg/mL (100 µg)): 58.3%
- bottom surface-crawling individuals % ([4]; 10 µg/mL (100 µg)): 0.0%
- number of byssal threads on the bottom surface ([4]; 10 µg/mL (100 µg)): 34
- overturned individuals or closed shell individuals (unadhered) % ([4]; 10 µg/mL (100 µg)): 33.3%
- wall surface-adhered individuals % ([4]; 10 µg/mL (100 µg)): 8.3%
- bottom surface-adhered individuals No. ([4]; 10 µg/mL (100 µg)): 7
- bottom surface-crawling individuals No. ([4]; 10 µg/mL (100 µg)): 0
- overturned individuals or closed shell individuals (unadhered) No. ([4]; 10 µg/mL (100 µg)): 4
- wall surface-adhered individuals No. ([4]; 10 µg/mL (100 µg)): 1
- antifouling effect (overall determination in words) [4]: effective

SMILES: CC(C)[C@@H](NC(=O)[C@@H]1CCCN1C(=O)[C@@H](NC(=O)OC(C)(C)C)[C@H](C)Cc1ccccc1)[C@@H](C)C(=O)OCc1ccccc1 [Boc-3]
- Toxicity 48h LC50 [5]: >10 µg/mL

SMILES: CCOC(=O)[C@H](CC(C)C)NC(=O)[C@@H]1CCCN1C(=O)[C@H](Cc1ccccc1)NC(=O)OC(C)(C)C [tripeptide 3] (Boc-Phe-Pro-Leu-OEt)
- Antifouling activity 48h EC50 [3, 8]: >10 µg/mL

SMILES: CCOC(=O)CC(C)NC(=O)[C@@H]1CCCN1C(=O)[C@H](Cc1ccccc1)NC(=O)OC(C)(C)C (stereo partly drawn) [tripeptide 10] (Boc-Phe-Pro-[ξβ3hA]-OEt)
- bottom surface-adhered individuals % ([4]; 3 µg/mL (30 µg)): 66.7%
- bottom surface-crawling individuals % ([4]; 3 µg/mL (30 µg)): 0.0%
- overturned individuals or closed shell individuals (unadhered) % ([4]; 3 µg/mL (30 µg)): 8.3%
- wall surface-adhered individuals % ([4]; 3 µg/mL (30 µg)): 25.0%
- number of byssal threads on the bottom surface [4, 10]: 80
- bottom surface-adhered individuals No. ([4]; 3 µg/mL (30 µg)): 8
- bottom surface-crawling individuals No. ([4]; 3 µg/mL (30 µg)): 0
- overturned individuals or closed shell individuals (unadhered) No. ([4]; 3 µg/mL (30 µg)): 1
- wall surface-adhered individuals No. ([4]; 3 µg/mL (30 µg)): 3
- bottom surface-adhered individuals % ([4]; 10 µg/mL (100 µg)): 58.3%
- bottom surface-crawling individuals % ([4]; 10 µg/mL (100 µg)): 0.0%
- number of byssal threads on the bottom surface ([4]; 10 µg/mL (100 µg)): 11.5
- overturned individuals or closed shell individuals (unadhered) % ([4]; 10 µg/mL (100 µg)): 8.3%
- wall surface-adhered individuals % ([4]; 10 µg/mL (100 µg)): 33.3%
- bottom surface-adhered individuals No. ([4]; 10 µg/mL (100 µg)): 7
- bottom surface-crawling individuals No. ([4]; 10 µg/mL (100 µg)): 0
- overturned individuals or closed shell individuals (unadhered) No. ([4]; 10 µg/mL (100 µg)): 1
- wall surface-adhered individuals No. ([4]; 10 µg/mL (100 µg)): 4
- antifouling effect (overall determination in words) [4]: ineffective
